Data: ChEMBL document CHEMBL1131366, “Development of new chromanol antagonists of leukotriene D4” (Bioorg Med Chem Lett, 1998)

How the values were obtained:
U-937 = assay: Compound was evaluated for influx of calcium mobilization in human U937 cells; type: functional, cell-based
Cavia porcellus [1] = assay: Compound was tested for antigen induced airway obstruction in guinea pig at 1.0 hr upon peroral administration; type: functional; settings: po
Cavia porcellus [2] = assay: Compound was tested for antigen induced airway obstruction in guinea pig at 2.0 hr upon peroral administration; type: functional; settings: po

Row | IC50 (U-937) [nM] | SMILES | ED50 (Cavia porcellus [1]) [mg/kg] | ED50 (Cavia porcellus [2]) [mg/kg]
1 | 1 | O=C(Nc1cccc2c(=O)cc(-c3nnn[nH]3)oc12)c1ccc(OCCCCc2ccccc2)cc1 | 1.5 | –
2 | 310 | O=C(O)c1cccc(C[C@@H]2COc3ccc(OCc4nc5cc(F)ccc5s4)cc3[C@@H]2O)c1 | – | 10.2
3 | 8 | C[C@H]1Oc2ccc(OCc3nc4cc(F)ccc4s3)cc2[C@H](O)[C@@H]1Cc1cccc(NS(=O)(=O)C(F)(F)F)c1 (stereo in doubt; (+)-26) | 0.5 | –
4 | – | COc1cc(C(=O)NS(=O)(=O)c2ccccc2C)ccc1Cc1cn(C)c2ccc(NC(=O)OC3CCCC3)cc12 [ZAFIRLUKAST] | – | 0.9
